Results on 1 compound are retold here after PMC4979471 (Cell Death Discovery, 2015).

Where two headings read alike, the source gives them in different places.

Holding throughout (test): Kinase selectivity, P33-radiolabeled assay
Common to all, as to assay type: biochemical
Details in all cases: 10 μM ATP

For one assay, the target named is T1, NEK2 (Homo sapiens, UniProt P51955).
T1 construct: purchased Reaction Biology Corp
T1 sequence (P51955 1-445): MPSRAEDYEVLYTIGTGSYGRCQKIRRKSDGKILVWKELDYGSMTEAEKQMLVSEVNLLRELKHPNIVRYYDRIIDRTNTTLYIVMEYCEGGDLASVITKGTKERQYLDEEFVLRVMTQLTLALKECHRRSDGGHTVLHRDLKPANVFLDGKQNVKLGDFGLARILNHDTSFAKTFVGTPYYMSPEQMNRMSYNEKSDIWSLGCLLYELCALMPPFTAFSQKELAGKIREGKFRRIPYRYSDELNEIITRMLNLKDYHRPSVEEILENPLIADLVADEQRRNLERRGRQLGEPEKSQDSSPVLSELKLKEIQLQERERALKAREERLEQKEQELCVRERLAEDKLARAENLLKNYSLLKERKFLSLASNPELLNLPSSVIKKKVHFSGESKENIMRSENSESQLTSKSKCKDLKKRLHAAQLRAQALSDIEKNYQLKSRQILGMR
Put shortly: (§1)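 Duplicate single-concentration testing used 10 μM compound. The ATP concentration was also 10 μM.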

For the next assay, the target named is T2, PKCb2 (Homo sapiens, UniProt P05771).
T2 construct: purchased Reaction Biology Corp
T2 sequence (P05771 1-673 isoform P05771-2): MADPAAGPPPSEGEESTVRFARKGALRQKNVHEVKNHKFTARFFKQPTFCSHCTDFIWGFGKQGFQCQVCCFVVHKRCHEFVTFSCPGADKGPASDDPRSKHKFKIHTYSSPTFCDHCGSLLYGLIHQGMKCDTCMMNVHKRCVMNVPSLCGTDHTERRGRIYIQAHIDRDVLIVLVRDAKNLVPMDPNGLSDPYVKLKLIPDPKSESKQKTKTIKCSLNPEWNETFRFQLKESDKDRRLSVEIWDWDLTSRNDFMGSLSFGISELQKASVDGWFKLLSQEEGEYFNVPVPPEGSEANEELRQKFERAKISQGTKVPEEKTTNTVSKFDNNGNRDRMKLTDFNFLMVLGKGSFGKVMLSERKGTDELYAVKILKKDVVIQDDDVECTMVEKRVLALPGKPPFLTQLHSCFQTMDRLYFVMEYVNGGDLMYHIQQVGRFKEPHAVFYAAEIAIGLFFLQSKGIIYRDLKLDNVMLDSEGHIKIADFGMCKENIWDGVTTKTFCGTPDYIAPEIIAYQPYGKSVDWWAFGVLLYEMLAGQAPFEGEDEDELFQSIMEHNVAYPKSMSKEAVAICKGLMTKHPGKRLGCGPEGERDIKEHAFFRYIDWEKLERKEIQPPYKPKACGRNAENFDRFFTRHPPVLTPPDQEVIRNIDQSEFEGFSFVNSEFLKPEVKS
A digest of the protocol: as §1

Another assay has as its target T3, PAK3 (Homo sapiens, UniProt O75914).
T3 construct: purchased Reaction Biology Corp
Put shortly:
as §1

Another assay addresses T4, COT1/MAP3K8 (Homo sapiens, UniProt P41279).
T4 construct: purchased Reaction Biology Corp
Put shortly:
as §1

The target of the next assay is T5, EPHA3 (Homo sapiens, UniProt P29320).
T5 construct: purchased Reaction Biology Corp
T5 sequence (P29320 21-983): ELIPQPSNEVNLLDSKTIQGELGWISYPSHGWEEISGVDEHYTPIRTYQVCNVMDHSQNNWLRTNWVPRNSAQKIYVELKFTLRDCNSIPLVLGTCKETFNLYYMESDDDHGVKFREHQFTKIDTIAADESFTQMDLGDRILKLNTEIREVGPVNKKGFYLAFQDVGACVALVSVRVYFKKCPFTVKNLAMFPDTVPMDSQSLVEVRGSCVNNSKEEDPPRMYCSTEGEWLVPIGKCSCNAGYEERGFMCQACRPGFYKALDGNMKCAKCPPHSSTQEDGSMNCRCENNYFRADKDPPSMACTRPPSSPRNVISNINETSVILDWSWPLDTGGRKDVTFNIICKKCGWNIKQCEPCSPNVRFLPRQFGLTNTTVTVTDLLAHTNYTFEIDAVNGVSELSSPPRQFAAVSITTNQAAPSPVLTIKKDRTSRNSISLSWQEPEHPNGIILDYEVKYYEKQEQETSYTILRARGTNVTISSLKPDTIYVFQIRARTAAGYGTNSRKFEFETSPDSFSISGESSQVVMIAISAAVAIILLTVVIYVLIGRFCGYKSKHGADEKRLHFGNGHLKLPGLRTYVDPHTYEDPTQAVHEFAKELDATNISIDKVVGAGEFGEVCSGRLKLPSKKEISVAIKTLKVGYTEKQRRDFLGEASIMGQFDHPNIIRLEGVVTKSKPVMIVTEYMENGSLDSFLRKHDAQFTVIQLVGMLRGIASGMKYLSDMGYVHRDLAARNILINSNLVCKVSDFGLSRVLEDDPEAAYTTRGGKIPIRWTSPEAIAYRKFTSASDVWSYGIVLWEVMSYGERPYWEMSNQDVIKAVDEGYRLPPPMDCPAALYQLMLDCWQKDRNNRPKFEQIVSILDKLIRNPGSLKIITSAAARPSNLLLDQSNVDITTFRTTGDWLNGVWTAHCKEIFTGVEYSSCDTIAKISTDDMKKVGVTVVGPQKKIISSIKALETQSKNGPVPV
A digest of the protocol: as §1

The target of the next assay is T6, SGK3/SGKL (Homo sapiens, UniProt Q96BR1).
T6 construct: purchased Reaction Biology Corp
T6 sequence (Q96BR1 1-496): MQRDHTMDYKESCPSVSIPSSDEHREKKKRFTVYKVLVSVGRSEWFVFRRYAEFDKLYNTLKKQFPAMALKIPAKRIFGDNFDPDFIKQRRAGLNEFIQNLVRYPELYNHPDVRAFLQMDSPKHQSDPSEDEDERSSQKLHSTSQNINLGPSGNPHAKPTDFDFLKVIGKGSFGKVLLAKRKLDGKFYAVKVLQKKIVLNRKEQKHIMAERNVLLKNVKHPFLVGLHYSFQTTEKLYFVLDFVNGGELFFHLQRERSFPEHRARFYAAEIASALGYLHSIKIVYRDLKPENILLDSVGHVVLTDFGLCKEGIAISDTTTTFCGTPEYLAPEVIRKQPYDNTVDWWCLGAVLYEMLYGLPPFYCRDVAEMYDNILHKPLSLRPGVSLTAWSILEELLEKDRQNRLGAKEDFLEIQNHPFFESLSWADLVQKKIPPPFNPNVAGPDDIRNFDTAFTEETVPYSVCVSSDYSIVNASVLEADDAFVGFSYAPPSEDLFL
A digest of the protocol: as §1

The next assay concerns the target T7, MAPKAPK5/PRAK (Homo sapiens, UniProt Q8IW41).
T7 construct: purchased Reaction Biology Corp
T7 sequence (Q8IW41 1-473): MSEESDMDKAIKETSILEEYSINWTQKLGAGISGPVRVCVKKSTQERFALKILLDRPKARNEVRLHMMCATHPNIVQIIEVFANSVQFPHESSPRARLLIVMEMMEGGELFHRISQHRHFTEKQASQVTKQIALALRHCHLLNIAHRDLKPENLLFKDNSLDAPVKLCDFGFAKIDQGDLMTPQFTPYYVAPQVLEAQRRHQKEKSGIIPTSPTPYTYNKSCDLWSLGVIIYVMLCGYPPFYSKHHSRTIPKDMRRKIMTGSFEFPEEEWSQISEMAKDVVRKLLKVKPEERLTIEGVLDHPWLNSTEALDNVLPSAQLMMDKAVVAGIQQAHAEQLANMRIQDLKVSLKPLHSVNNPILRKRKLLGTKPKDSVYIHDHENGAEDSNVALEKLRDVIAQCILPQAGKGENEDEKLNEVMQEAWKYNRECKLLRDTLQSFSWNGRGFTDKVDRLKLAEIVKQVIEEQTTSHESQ
Put shortly: as §1

[1] abbreviates: read-out: % Enzyme Activity (relative to DMSO controls) AVG.
[2] abbreviates: read-out: % Enzyme Activity (relative to DMSO controls) Data 1.
Setting [3] is: read-out: % Enzyme Activity (relative to DMSO controls) Data 2.

T3 sequence (O75914 whole entry): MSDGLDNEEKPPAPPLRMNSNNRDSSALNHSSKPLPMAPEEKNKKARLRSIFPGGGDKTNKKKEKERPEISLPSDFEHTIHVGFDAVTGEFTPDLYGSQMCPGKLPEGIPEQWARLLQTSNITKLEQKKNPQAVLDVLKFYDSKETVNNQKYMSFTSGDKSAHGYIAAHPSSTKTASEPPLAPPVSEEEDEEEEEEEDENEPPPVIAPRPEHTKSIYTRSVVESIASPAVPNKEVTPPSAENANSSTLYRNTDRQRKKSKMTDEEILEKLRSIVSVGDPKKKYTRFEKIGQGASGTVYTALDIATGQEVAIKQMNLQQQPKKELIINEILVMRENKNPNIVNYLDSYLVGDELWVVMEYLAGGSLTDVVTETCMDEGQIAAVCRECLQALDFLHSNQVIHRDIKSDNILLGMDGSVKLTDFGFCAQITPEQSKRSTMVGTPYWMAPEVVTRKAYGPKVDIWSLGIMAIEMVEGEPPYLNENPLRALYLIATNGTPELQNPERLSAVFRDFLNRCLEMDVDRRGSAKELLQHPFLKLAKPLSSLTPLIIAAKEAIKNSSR
T4 sequence (P41279 whole entry): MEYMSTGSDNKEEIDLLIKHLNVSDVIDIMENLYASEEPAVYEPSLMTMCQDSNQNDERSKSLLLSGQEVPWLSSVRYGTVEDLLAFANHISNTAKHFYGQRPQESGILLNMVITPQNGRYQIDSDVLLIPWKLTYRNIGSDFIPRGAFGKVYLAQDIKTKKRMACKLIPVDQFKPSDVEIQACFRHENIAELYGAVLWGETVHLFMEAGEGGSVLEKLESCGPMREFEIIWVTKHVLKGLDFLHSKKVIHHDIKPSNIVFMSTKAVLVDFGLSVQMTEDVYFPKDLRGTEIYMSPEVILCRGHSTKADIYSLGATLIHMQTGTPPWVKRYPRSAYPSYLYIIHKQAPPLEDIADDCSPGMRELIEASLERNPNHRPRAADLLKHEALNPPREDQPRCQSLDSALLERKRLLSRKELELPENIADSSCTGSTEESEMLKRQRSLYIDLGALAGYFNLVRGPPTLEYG

As to `CC(C)(C)C(=O)N1N=CC[C@H]1c1ccccc1` [GSK′963], the remaining activity at 10 µM was determined as 107% on NEK2 (setting [1]); 108% on NEK2 (setting [2]); 106% at NEK2 (setting [3]); 105% on PKCb2 (setting [1]); 105% on PKCb2 (setting [2]); 106% on PKCb2 (setting [3]). Besides, the remaining activity at 10 µM at PAK3 (setting [1]) is 103%; on PAK3 (setting [2]), 102%; on PAK3 (setting [3]) it was 105%; at COT1/MAP3K8 (setting [1]), 87.1%; on COT1/MAP3K8 (setting [2]) it was 86.6%; at COT1/MAP3K8 (setting [3]), 87.5%. The remaining activity at 10 µM on EPHA3 (setting [1]) was determined as 91.8%; at EPHA3 (setting [2]), 94.4%; on EPHA3 (setting [3]), 89.2%; at SGK3/SGKL (setting [1]), 107%; at SGK3/SGKL (setting [2]) it was 104%; on SGK3/SGKL (setting [3]), 110%. Besides, the values for the remaining activity at 10 µM on MAPKAPK5/PRAK (setting [1]), at MAPKAPK5/PRAK (setting [2]) and at MAPKAPK5/PRAK (setting [3]) were 116%, 115% and 117%, respectively.
